Key:
[1] = molecular target: T1, human recombinant histamine H1 receptor (Homo sapiens, UniProt P35367); assay: Histamine H1 radioligand binding ([3H]Pyrilamine); conditions: compound at 1 μM; inhibition of specific [3H]Pyrilamine binding; read-out: Histamine Binding (1 μM) H1, Percentage Inhibition
T1 construct: expressed in transfected cells; host or cells: CHO cells
Description: To evaluate in radioligand binding assays the activity of compounds of the invention, human recombinant histamine H1 receptor expressed in Chinese hamster ovary (CHO) cells (De Backer, M. D. et al., Biochem. Biophys. Res. Comm. 197(3):1601, 1993) in a modified Tris-HCl buffer (50 mM Tris-HCl, pH 7.4, 2 mM MgCl2, 100 mM NaCl, 250 mM Sucrose) was used. Compounds of the invention were incubated with 1.2 nM [^3H]Pyrilamine for 180 minutes at 25° C. Non-specific binding was estimated in the presence of 1 μM pyrilamine. Receptor proteins were filtered and washed, the filters were then counted to determine [^3H]Pyrilamine specifically bound. Compounds were screened at 1 μM or lower, using 1% DMSO as vehicle. Biochemical assay results are presented as the percent inhibition of specific binding in Table 2.

[2] = molecular target: T2, human recombinant serotonin (5-Hydroxytryptamine) 5-HT7 receptor (Homo sapiens, UniProt P34969); assay: Serotonin 5-HT7 radioligand binding ([3H]LSD); conditions: read-out: Serotonin 5-HT7, inhibition of ligand binding (1 μM)
T2 construct: expressed in transfected cells; host or cells: CHO cells
Description: To evaluate in radioligand binding assays the activity of compounds of the invention, human recombinant serotonin (5-Hydroxytryptamine) 5-HT7 receptor expressed in Chinese hamster ovary (CHO) cells (Roth, B. L. et al., J. Pharmacol. Exp. Ther. 268:1403, 1994; Shen, Y. et al., J. Biol. Chem. 268:18200, 1993) in a modified Tris-HCl buffer (50 mM Tris-HCl, pH 7.4, 10 mM MgCl2, 0.5 mM EDTA) was used. Compounds of invention were incubated with 5.5 nM [^3H] Lysergic acid diethylamide (LSD) for 2 hours at 25° C. Non-specific binding was estimated in the presence of 10 μM Serotonin (5-HT). Receptor proteins were filtered and washed, the filters were then counted to determine [^3H]LSD specifically bound. Compounds were screened at 1 μM or lower, using 1% DMSO as vehicle. Biochemical assay results are presented as the percent inhibition of specific binding in Table 4.

[3] = molecular target: T3, human recombinant histamine H2 receptor (Homo sapiens, UniProt P25021); assay: Histamine H2 radioligand binding ([125I]Aminopotentidine); conditions: compound at 1 μM; inhibition of specific [125I]Aminopotentidine binding; read-out: Histamine Binding (1 μM) H2, Percentage Inhibition
T3 construct: expressed in transfected cells; host or cells: CHO-K1 cells
Description: To evaluate in radioligand binding assays the activity of compounds of the invention, human recombinant histamine H2 receptor expressed in Chinese hamster ovary (CHO) K1 cells (Ruat, M., Proc. Natl. Acad. Sci. USA. 87(5):1658, 1990) in a 50 mM Phosphate buffer, pH 7.4 was used. Compounds of the invention were incubated with 0.1 nM [^125I]Aminopotentidine for 120 minutes at 25° C. Non-specific binding was estimated in the presence of 3 μM Tiotidine. Receptor proteins were filtered and washed, the filters were then counted to determine [^125I]Aminopotentidine specifically bound. Compounds were screened at 1 μM or lower, using 1% DMSO as vehicle. Biochemical assay results are presented as the percent inhibition of specific binding in Table 2.

[4] = molecular target: T4, human recombinant serotonin (5-Hydroxytryptamine) 5-HT2C receptor (Homo sapiens, UniProt P28335); assay: Serotonin 5-HT2C radioligand binding ([3H]Mesulergine); conditions: read-out: Serotonin 5-HT2C, inhibition of ligand binding (1 μM)
T4 construct: expressed in transfected cells; host or cells: CHO-K1 cells
T4 sequence (P28335 33-458): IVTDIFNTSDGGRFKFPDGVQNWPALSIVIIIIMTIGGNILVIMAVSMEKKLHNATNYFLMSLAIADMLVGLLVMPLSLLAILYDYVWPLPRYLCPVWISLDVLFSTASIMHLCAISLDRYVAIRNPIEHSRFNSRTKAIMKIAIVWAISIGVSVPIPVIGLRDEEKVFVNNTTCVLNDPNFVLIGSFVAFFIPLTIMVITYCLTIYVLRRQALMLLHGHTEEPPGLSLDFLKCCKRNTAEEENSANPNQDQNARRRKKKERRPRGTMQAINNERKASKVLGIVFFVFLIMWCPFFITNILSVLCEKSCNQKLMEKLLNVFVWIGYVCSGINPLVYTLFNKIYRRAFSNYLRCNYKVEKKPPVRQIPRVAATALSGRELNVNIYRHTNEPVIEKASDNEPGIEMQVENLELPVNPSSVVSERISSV
Description: To evaluate in radioligand binding assays the activity of compounds of the invention, human recombinant serotonin (5-Hydroxytryptamine) 5-HT2C receptor expressed in Chinese hamster ovary (CHO-K1) cells (Wolf, W. A. and Schutz, J. S., J. Neurochem. 69:1449, 1997) in a modified Tris-HCl buffer (50 mM Tris-HCl, pH 7.4, 0.1% Ascorbic Acid, 10 μM Pargyline) was used. Compounds of the invention were incubated with 1 nM [^3H]Mesulergine for 60 minutes at 25° C. Non-specific binding was estimated in the presence of 1 μM Mianserin. Receptor proteins were filtered and washed, the filters were then counted to determine [^3H]Mesulergine specifically bound. Compounds were screened at 1 μM or lower, using 1% DMSO as vehicle. Biochemical assay results are presented as the percent inhibition of specific binding in Table 4.

[5] = molecular target: T5, human recombinant serotonin (5-Hydroxytryptamine) 5-HT2A receptor (Homo sapiens, UniProt P28223); assay: Serotonin 5-HT2A radioligand binding ([3H]Ketanserin); conditions: read-out: Serotonin 5-HT2A, inhibition of ligand binding (1 μM)
T5 construct: expressed in transfected cells; host or cells: CHO-K1 cells
Description: To evaluate in radioligand binding assays the activity of compounds of the invention, human recombinant serotonin (5-Hydroxytryptamine) 5-HT2A receptor expressed in Chinese hamster ovary (CHO-K1) cells (Bonhaus, D. W. et al. Br. J. Pharmacol. 115:622, 1995; Saucier, C. and Albert, P. R., J. Neurochem. 68:1998, 1997) in a 50 mM Tris-HCl buffer, pH 7.4, was used. Compounds of the invention were incubated with 0.5 nM [^3H]Ketanserin for 60 minutes at 25° C. Non-specific binding was estimated in the presence of 1 μM Mianserin. Receptor proteins were filtered and washed, the filters were then counted to determine [^3H]Ketanserin specifically bound. Compounds were screened at 1 μM or lower, using 1% DMSO as vehicle. Biochemical assay results are presented as the percent inhibition of specific binding in Table 4.

[6] = molecular target: T6, human recombinant dopamine D2L receptor (Homo sapiens, UniProt P14416); assay: Dopamine D2L radioligand binding ([3H]Spiperone); conditions: read-out: Dopamine (1 μM) D2L, inhibition of ligand binding
T6 construct: expressed in transfected cells; host or cells: CHO cells
Description: To evaluate in radioligand binding assays the activity of compounds of the invention, human recombinant dopamine D2L receptor expressed in Chinese hamster ovary (CHO) cells (Grandy, D. K. et al. Proc. Natl. Acad. Sci. USA. 86:9762, 1989; Hayes, G. et al., Mol. Endocrinol. 6:920, 1992) in a modified Tris-HCl buffer (50 mM Tris-HCl, pH 7.4, 1.4 mM Ascorbic Acid, 0.001% BSA, 150 mM NaCl) was used. Compounds of the invention were incubated with 0.16 nM [^3H]Spiperone for 120 minutes at 25° C. Non-specific binding was estimated in the presence of 10 μM Haloperidol. Receptor proteins were filtered and washed, the filters were then counted to determine [^3H]Spiperone specifically bound. Compounds were screened at 1 μM or lower, using 1% DMSO as vehicle. Biochemical assay results are presented as the percent inhibition of specific binding in Table 3.

[7] = molecular target: T7, human recombinant serotonin (5-Hydroxytryptamine) 5-HT6 receptor (Homo sapiens, UniProt P50406); assay: Serotonin 5-HT6 radioligand binding ([3H]LSD); conditions: read-out: Serotonin 5-HT6, inhibition of ligand binding (1 μM)
T7 construct: expressed in transfected cells; host or cells: human HeLa cells
Description: To evaluate in radioligand binding assays the activity of compounds of the invention, human recombinant serotonin (5-Hydroxytryptamine) 5-HT6 receptor expressed in human HeLa cells (Monsma, F. J. Jr. et al., Mol. Pharmacol. 43:320, 1993) in a modified Tris-HCl buffer (50 mM Tris-HCl, pH 7.4, 150 mM NaCl, 2 mM Ascorbic Acid, 0.001% BSA) was used. Compounds of the invention were incubated with 1.5 nM [3H]Lysergic acid diethylamide (LSD) for 120 minutes at 37° C. Non-specific binding was estimated in the presence of 5 μM Serotonin (5-HT). Receptor proteins were filtered and washed, the filters were then counted to determine [3H]LSD specifically bound. Compounds were screened at 1 μM or lower, using 1% DMSO as vehicle. Biochemical assay results are presented as the percent inhibition of specific binding in Table 4.

T6 sequence (P14416 whole entry): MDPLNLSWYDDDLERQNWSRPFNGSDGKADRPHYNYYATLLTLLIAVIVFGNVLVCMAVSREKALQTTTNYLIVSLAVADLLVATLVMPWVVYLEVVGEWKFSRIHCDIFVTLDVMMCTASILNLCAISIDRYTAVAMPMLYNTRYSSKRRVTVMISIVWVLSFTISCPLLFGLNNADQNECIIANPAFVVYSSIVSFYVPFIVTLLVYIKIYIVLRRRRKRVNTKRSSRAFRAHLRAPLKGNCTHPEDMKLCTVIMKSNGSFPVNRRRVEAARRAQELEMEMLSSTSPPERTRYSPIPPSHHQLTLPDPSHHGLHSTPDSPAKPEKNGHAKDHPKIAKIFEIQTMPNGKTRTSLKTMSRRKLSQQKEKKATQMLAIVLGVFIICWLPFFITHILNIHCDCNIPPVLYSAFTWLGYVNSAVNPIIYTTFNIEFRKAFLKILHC
T7 sequence (P50406 whole entry): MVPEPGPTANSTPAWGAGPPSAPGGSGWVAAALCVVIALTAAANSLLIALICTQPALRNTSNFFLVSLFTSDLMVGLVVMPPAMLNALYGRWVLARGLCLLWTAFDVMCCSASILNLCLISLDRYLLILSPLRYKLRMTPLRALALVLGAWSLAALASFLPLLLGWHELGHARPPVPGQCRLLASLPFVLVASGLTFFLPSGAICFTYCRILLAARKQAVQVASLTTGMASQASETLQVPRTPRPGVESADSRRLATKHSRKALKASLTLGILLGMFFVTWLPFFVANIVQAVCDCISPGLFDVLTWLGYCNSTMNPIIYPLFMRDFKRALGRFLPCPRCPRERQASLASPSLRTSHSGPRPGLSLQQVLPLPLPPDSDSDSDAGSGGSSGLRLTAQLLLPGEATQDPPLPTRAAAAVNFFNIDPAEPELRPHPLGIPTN
T1 sequence (P35367 whole entry): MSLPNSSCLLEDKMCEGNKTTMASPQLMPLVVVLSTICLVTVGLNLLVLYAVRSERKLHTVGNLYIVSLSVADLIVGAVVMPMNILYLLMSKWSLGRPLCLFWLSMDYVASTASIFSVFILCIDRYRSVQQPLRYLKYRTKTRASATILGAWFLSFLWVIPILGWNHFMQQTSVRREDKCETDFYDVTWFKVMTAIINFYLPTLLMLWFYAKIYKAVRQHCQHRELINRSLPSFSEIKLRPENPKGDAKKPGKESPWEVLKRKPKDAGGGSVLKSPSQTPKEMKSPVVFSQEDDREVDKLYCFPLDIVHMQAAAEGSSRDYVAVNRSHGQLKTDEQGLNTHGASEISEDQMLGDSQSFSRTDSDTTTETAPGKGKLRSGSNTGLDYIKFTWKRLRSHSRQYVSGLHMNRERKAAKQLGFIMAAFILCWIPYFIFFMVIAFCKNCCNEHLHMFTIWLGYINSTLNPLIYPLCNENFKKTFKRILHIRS
T2 sequence (P34969 whole entry): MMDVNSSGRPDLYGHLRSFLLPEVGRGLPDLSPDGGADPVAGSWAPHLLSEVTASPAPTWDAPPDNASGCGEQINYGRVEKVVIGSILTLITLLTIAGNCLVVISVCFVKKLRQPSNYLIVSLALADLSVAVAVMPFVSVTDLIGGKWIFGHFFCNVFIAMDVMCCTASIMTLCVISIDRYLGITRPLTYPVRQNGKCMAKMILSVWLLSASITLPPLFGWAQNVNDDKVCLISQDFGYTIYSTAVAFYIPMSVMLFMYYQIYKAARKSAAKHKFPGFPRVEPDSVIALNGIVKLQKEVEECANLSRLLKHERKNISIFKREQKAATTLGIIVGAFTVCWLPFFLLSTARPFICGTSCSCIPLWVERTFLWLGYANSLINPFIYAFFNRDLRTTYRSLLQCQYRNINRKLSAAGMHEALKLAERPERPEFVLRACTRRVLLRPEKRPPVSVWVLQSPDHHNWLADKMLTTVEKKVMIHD
T3 sequence (P25021 whole entry): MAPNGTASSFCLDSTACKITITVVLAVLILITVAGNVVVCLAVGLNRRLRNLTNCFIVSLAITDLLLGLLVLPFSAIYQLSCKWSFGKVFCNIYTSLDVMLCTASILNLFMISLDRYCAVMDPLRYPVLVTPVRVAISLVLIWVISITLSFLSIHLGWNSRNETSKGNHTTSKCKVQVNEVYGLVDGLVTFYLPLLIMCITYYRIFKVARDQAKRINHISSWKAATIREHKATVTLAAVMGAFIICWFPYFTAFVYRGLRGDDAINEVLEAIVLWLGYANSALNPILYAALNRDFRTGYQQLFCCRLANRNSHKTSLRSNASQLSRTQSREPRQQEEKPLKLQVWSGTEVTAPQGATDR
T5 sequence (P28223 whole entry): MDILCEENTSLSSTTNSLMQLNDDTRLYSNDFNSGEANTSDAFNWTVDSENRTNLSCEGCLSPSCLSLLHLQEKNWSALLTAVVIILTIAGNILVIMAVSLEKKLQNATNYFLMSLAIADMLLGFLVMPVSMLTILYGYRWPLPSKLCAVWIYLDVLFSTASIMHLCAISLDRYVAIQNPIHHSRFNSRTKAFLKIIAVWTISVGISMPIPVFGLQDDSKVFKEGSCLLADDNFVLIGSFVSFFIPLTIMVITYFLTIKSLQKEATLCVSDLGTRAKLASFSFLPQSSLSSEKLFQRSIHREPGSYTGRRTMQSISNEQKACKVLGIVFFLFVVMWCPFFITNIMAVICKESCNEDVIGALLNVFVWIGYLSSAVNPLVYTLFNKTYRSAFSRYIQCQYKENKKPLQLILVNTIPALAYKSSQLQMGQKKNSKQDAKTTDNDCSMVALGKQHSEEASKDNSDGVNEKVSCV

Row | Compound | inhibition at 1 µM [1] | inhibition at 1 µM [2] | inhibition at 1 µM [3] | inhibition at 1 µM [4] | inhibition at 1 µM [5] | inhibition at 1 µM [6] | inhibition at 1 µM [7]
1 | C/C(=C\n1c2c(c3cc(Cl)ccc31)C1CCC(C2)N1C)c1cccnc1 (centres unmarked) [Compound 128] | 15% | 66% | 21% | 77% | 91% | 21% | 62%
2 | C/C(=C\n1c2c(c3cc(C)ccc31)C1CCC(C2)N1C)c1cccnc1 (centres unmarked) [Compound 129] | 5% | 80% | 26% | 72% | 88% | 8% | 19%
3 | C/C(=C\n1c2c(c3cc(Cl)ccc31)C1CCC(C2)N1C)c1ccc(Cl)c(Cl)c1 (centres unmarked) [Compound 132] | 87% | 81% | 99% | 95% | 100% |  | 31%
4 | COc1ccc(C#Cn2c3c(c4cc(Cl)ccc42)C2CCC(C3)N2C)cc1F (centres unmarked) [Compound 154] | 30% | 21% | 87% | 97% | 96% | 13% | 31%
5 | COc1ccc(C#Cn2c3c(c4cc(C)ccc42)C2CCC(C3)N2C)cc1F (centres unmarked) [Compound 155] | 10% | 24% | 84% | 99% | 100% | 10% | 49%
6 | C/C(=C\n1c2c(c3cc(C)ccc31)C1CCC(C2)N1C)c1ccccc1F (centres unmarked) [Compound 164] | 65% | 96% | 41% | 93% | 94% | 12% | 57%

Reference: patent US8546381B2, “Bridged heterocyclic compounds and methods of use” (Medivation Technologies, Inc., priority 2008, dated 2013)
